Test results taken from US6787539B2, “2,4,5,-trisubstituted pyrimidine derivatives” (Hoffmann-La Roche Inc., priority 2000, dated 2004).

These compounds were tested against T1, human NK1 receptor (Homo sapiens, UniProt P25103) (assay: Affinity for the NK1 receptor, [3H]substance P displacement binding assay). Details: affinity to the NK-1 receptor; human NK1 receptors in CHO cells; [3H]substance P 0.6 nM; 60 min at room temperature.
T1 construct: expressed in transfected cells; host or cells: CHO cells infected using the Semliki virus expression system; membrane suspension
T1 sequence (P25103 whole entry): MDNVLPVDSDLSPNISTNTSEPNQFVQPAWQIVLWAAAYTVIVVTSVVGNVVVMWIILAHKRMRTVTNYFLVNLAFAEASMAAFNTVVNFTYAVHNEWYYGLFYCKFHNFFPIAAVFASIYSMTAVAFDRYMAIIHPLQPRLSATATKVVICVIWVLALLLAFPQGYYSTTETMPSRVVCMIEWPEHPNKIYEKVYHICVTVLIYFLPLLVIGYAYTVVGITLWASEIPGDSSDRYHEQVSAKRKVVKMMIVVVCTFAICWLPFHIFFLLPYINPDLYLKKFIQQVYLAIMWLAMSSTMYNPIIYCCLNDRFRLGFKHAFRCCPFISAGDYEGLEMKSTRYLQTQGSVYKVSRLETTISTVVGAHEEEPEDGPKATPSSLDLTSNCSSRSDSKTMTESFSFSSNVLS
Procedure: The affinity of test compounds for the NK1 receptor was evaluated at human NK1 receptors in CHO cells infected with the human NK1 receptor (using the Semliki virus expression system) and radiolabelled with [^3H]substance P (final concentration 0.6 nM). Binding assays were performed in HEPES buffer (50 mM, pH 7.4) containing BSA (0.04%) leupeptin (8 μg/ml), MnCl2 (3 mM) and phosphoramidon (2 μM). Binding assays consisted of 250 μl of membrane suspension (1.25×10^5 cells/assay tube), […] of displacing agent and 125 μl of [^3H]substance P. Displacement curves were determined with at least seven concentrations of the compound. The assay tubes were incubated for 60 min at room temperature after which time the tube contents were rapidly filtered under vacuum through GF/C filters presoaked for 60 min with PEI (0.3%) with 2×2 ml washes of HEPES buffer (50 mM, pH 7.4). The radioactivity retained on the filters was measured by scintillation counting. All assays were performed in triplicate in at least 2 separate experiments.

pKi	Ki	Compound
6.50		4-(2-Methoxy-phenoxy)-2-(4-methyl-piperazin-1-yl)-pyrimidine-5-carboxylic acid (3,5-bis-trifluoromethyl-benzyl)-methyl-amide [Example 29]
	41.7 nM	CSc1ncc(C(=O)N(C)Cc2cc(C(F)(F)F)cc(C(F)(F)F)c2)c(Oc2ccccc2C)n1 [Example 1, 2-Methylsulfanyl-4-o-tolyloxy-pyrimidine-5-carboxylic acid (3,5-bis-trifluoromethyl-benzyl)-methyl-amide]
	2.88 nM	Cc1ccccc1Oc1nc(N2CCN(C)CC2)ncc1C(=O)N(C)Cc1cc(C(F)(F)F)cc(C(F)(F)F)c1 [Example 4, 2-(4-Methyl-piperazin-1-yl)-4-o-tolyloxy-pyrimidine-5-carboxylic acid (3,5-bis-trifluoromethyl-benzyl)-methyl-amide]
	4.68 nM	Cc1ccccc1Oc1nc(OCCN2CCOCC2)ncc1C(=O)N(C)Cc1cc(C(F)(F)F)cc(C(F)(F)F)c1 [Example 7, 2-(2-Morpholin-4-yl-ethoxy)-4-o-tolyloxy-pyrimidine-5-carboxylic acid (3,5-bis-trifluoromethyl-benzyl)-methyl-amide]
	170 nM	COc1cc(CN(C)C(=O)c2cnc(N3CCN(C)CC3)nc2Oc2ccccc2C)cc(OC)c1 [Example 11, 2-(4-Methyl-piperazin-1-yl)-4-o-tolyloxy-pyrimidine-5-carboxylic acid (3,5-dimethoxy-benzyl)-methyl-amide]
	28.2 nM	Cc1cc(C)cc(CN(C)C(=O)c2cnc(N3CCN(C)CC3)nc2Oc2ccccc2C)c1 [Example 15, 2-(4-Methyl-piperazin-1-yl)-4-o-tolyloxy-pyrimidine-5-carboxylic acid (3,5-dimethyl-benzyl)-methyl-amide]
	195 nM	Cc1ccccc1Oc1nc(N2CCN(C)CC2)ncc1C(=O)NCc1cc(Cl)cc(Cl)c1 [Example 19, 2-(4-Methyl-piperazin-1-yl)-4-o-tolyloxy-pyrimidine-5-carboxylic acid 3,5-dichloro-benzylamide]
	97.7 nM	CSc1ncc(C(=O)N(C)Cc2cc(C(F)(F)F)cc(C(F)(F)F)c2)c(Oc2ccccc2)n1 [Example 23, 2-Methylsulfanyl-4-phenoxy-pyrimidine-5-carboxylic acid (3,5-bis-trifluoromethyl-benzyl)-methyl-amide]
	16.2 nM	Cc1ccccc1Oc1nc(-c2ccncc2)ncc1C(=O)N(C)Cc1cc(C(F)(F)F)cc(C(F)(F)F)c1 [Example 39, 2-Pyridin-4-yl-4-o-tolyloxy-pyrimidine-5-carboxylic acid (3,5-bis-trifluoromethyl-benzyl)-methyl-amide]
	20 nM	Cc1ccccc1Oc1nc(N2CCSCC2)ncc1C(=O)N(C)Cc1cc(C(F)(F)F)cc(C(F)(F)F)c1 [Example 44, 2-Thiomorpholin-4-yl-4-o-tolyloxy-pyrimidine-5-carboxylic acid (3,5-bis-trifluoromethyl-benzyl)-methyl-amide]
	0.912 nM	Cc1ccccc1Oc1nc(N2CCN(C)CC2)ncc1N(C)C(=O)C(C)(C)c1cc(C(F)(F)F)cc(C(F)(F)F)c1 [Example 49, 2-(3,5-Bis-trifluoromethyl-phenyl)-N-methyl-N-[2-(4-methyl-piperazin-1-yl)-4-o-tolyloxy-pyrimidin-5-yl]-isobutyramide]
	0.794 nM	Cc1ccccc1Oc1nc(OCCN2CCOCC2)ncc1N(C)C(=O)C(C)(C)c1cc(C(F)(F)F)cc(C(F)(F)F)c1 [Example 52, 2-(3,5-Bis-trifluoromethyl-phenyl)-N-methyl-N-[2-(2-morpholin-4-yl-ethoxy)-4-o-tolyloxy-pyrimidin-5-yl]-isobutyramide]
	9.55 nM	CN(C)CCCOc1ncc(N(C)C(=O)C(C)(C)c2cc(C(F)(F)F)cc(C(F)(F)F)c2)c(Oc2ccc(F)cc2)n1 [Example 63, 2-(3,5-Bis-trifluoromethyl-phenyl)-N-[2-(3-dimethylamino-propoxy)-4-(4-fluoro-phenoxy)-pyrimidin-5-yl]-N-methyl-isobutyramide]
	32.4 nM	Cc1ccccc1Oc1nc(-c2ccccc2)ncc1N(C)C(=O)C(C)(C)c1cc(C(F)(F)F)cc(C(F)(F)F)c1 [Example 73, 2-(3,5-Bis-trifluoromethyl-phenyl)-N-methyl-N-(2-phenyl-4-o-tolyloxy-pyrimidin-5-yl)-isobutyramide]
